Reference: US20030005484A1, “Microbiocidal and pesticidal aromatic aldehydes” (ProGuard, Inc., priority 1994, published 2003)
Several values for one entry are separate records, joined by “and”; a condition that tells them apart may be missing. Equal entries are not always repeated. Where two headings read alike, the source gives them in different places.

Experiments:
Spider Mites = assay: spider mites on cabernet sauvignon grapevines, 0.3% spray; type: in vivo; conditions: 0.3% CNMA; two days after spraying; untreated 17.9
Protocol: (§1) The effect of 0.3% cinnamic aldehyde on leafhoppers and spider mites on grapevine leaves was examined. 30% cinnamic aldehyde was diluted 1:100 in water and sprayed one time on a 1 acre block of cabernet sauvignon grapevines in a vineyard using a 300 gal Pul-Blast rsprayer at 160 psi. 120 gal. were applied to one acre of vineyard. As a control, a one-acre block remained untreated. Blocks were pseudo-replicated so as to obtain an indication of the reliability of the treatment. Prior to treatment mites on leaves were pre-counted using a dissecting microscope. Leafhopper numbers also were determined in the field prior to treatment. Two days after spraying, two leaves, one from the basal portion and one from the proximal portion of the vine were examined from 16 vines from 2 rows for each treatment. Leaf samples also were taken from both sides of the vines (north and south) to include variation due to vine exposure. […]

[1] = tested on: thrips insects (Frankliniella occidentalis); assay: residual activity on filter paper against thrips; type: in vivo; conditions: residue on filter paper, rehydrated 24 and 72 hours after spraying; thrips mortality after one hour
Protocol: In the first experiment, two ml of two concentrations of CNMA (0.3 and 1%) were sprayed on filter paper (Whatman). As a negative control, two ml of water also were sprayed on filter paper. Twenty-four hours later, two ml of water were sprayed on treatment and control filter paper, which were then dried for 30 min. Approximately 30 thrips insects (Frankliniella occidentalis) were introduced and the number of F. occidentalis were observed after one hour. Mean mortality was calculated for each treatment.
After 72 hours, the treatment filter papers were flipped over and only the negative control filter paper and the filter paper treated with 1% CNMA were sprayed with 2 ml of water and allowed to dry for 30 minutes. Approximately 30 thrips were introduced to the two treated filter papers and after one hour the number of dead F. occidentalis were observed and the mean mortality calculated for each treatment. A similar assay was conducted using a-hexyl cinnamaldehyde. Mean mortality was higher for rehydrated filter papers compared to non-rehydrated filter papers over time.

phylloxera-biotype A = assay: greenhouse Merlot vines infested with phylloxera, leaf spray, disease rating of roots; type: in vivo, Daktulosphaira vitifoliae
Source text: For greenhouse tests, one year old potted V. vinifera cultivar merlot plants were used that had been obtained from Foundation Plant Material Service, University of California, Davis. The plants were potted in 10 cm diameter pots and were infested with phylloxera 5 weeks prior to treatment. At the time of spraying with a treatment solution, plant pots were placed in a plastic bag so that chemical runoff from the leaf sprays would not drip into the soil. The plants were sprayed to runoff with a household 1 liter-capacity plastic spray bottle. Plants were allowed to air dry outside and then replaced in the greenhouse. At intervals thereafter, the roots were separated from the potting mix and total phylloxera population estimated.

powdery mildew = powdery mildew on Chardonnay grapes; type: in vivo
Protocol: The effect of 0.3% and 0.6% cinnamic aldehyde on pacific mites on grapevine leaves was examined cinnamic aldehyde was diluted to 0.3% and 0.6% in water. Each formulation was sprayed onto a 1 acre block of Chardonnay wine grapes with a tractor-drawn 500 gal. hydraulic sprayer at 150 psi at a rate of 150 gal./acre. As a control, a 10-acre block of Chardonnay wine grapes was treated the same day as the test formulations with the conventional treatment (Omite) per label directions. The number of mites was counted the day prior to spraying and 4 days after spraying. […] In fact, both concentrations reduced the number of mites to a larger extent than the positive control, conventional treatment, Omite. The 0.6% rate nearly eliminated live mites on grapevines. […] The 0.6% was slightly beter than the 0.3 % cinnamic aldehyde with respect to powdery mildew control.
The effect of 0.4% cinnamic aldehyde on powdery mildew and pacific mites on grapes was examined. Cinnamic aldehyde was diluted to 0.4% in water and sprayed onto a 1.8 acre test plot of Chardonnay grapevines with a tractor drawn, PTO powered sprayer, spraying at approximately 100 psi at a rate of 150 gal./acre. A 3 acre untreated plot served as a negative control. Additional controls included treatment of a 3.8 acre plot with stylet oil and a plot treated with a mix of Rubigan, Omite, and stylet oil, which cost appriximately $60.00/acre. Spray cards were placed randomly through the test block. Ten fruit clusters, which were generally completely covered with powdery mildew, in each of the four fields were flagged. […] Therefore, cinnamic aldehyde was effective at controlling both powdery mildew and pacific mites on grapes.

[2] = tested on: melon aphid (Aphis gossypii Glover); assay: melon aphid plant foliar bioassay on chrysanthemum; type: in vivo; conditions: for Mean Number of Aphid Nymphs Per Leaf: sprayed to runoff, after 36 hours, pre-count 60
Protocol: Treatment of melon aphid (Aphis gossypii Glover) was conducted as follows. Chrysantemums (C. morifolum) were used for melon aphid plant foliar bioassays. Plants were grown in […] pots in planting soil in greenhouse. Flowering plants were infested and pre-count population size for each plant were taken and number of mean of aphids nymphs per leaf calculated. The plants were sprayed to runoff (about 5 ml) with an aqueous formulation containing 1,000 ppm, 3,000 ppm, and 10,000 ppm concentration of cinnamic aldehyde, and a negative control containing only H2O. After 36 hours, the number of insects on the leaves sprayed with a given test formulation was determined and compared with that of insects on leaves sprayed with negative control only. Mean number of aphid nymphs per leaf were determined to be less than 10 for each cinnamic aldehyde concentration as compared to a pre-count mean of about 60.

leafhoppers = leafhoppers on cabernet sauvignon grapevines, 0.3% spray; type: in vivo; conditions: 0.3% CNMA; two days after spraying; untreated 2.46
Protocol: as §1

[3] = tested on: root-knot nematode, Meloidogyne javanica; type: in vivo
Protocol: In a double blind study, concentrations of the subject aldehyde compounds were tested for activity against root-knot nematode, Meloidogyne javanica. Nematodes were put in direct contact with the chemical and at 24 hour intervals, mortality was assessed both visually and by probing. Meloidogyne javanica were produced using hydroponics. The nematodes were harvested and used within 24 hours.
Approximately 100 nematodes in 0.07 mls of water were pipetted into a syracuse dish (Fisher) and 1 ml of test formulation was immediately pipetted into each dish. The dishes were then placed into plastic bags to retain moisture and prevent evaporation. Four syracuse dishes were used for each solution test formulation. […] Moving nematodes were counted as living.

[4] = CNMA 0.4% in water, 150 gal./acre, controls stylet oil, chemical mix

O=C/C=C/c1ccccc1 [cinnamic aldehyde]
MITES/LEAF (Spider Mites): 3.27
residual activity [1]: have residual activity
Average disease rating (0-4) (phylloxera-biotype A; CNMA 10,000 ppm in 6% NaHCO3 and 2% Tween-80, leaves to run-off, week 1 (7 day evaluation)): 0^2(3)^3 and 0
Average disease rating (0-4) (phylloxera-biotype A; Experiment 2, 2500 ppm CNMA leaf treatment, 1 day post treatment): 4 (3)
Average disease rating (0-4) (phylloxera-biotype A; Experiment 2, 2500 ppm CNMA leaf treatment, 2 days post treatment): 0.3(3)
Average disease rating (0-4) (phylloxera-biotype A; Experiment 2, 2500 ppm CNMA leaf treatment, 7 days post treatment): 0.3(3)
insects on roots after leaf spray (phylloxera-biotype A; one-year-old greenhouse Merlot vines sprayed to run-off, after two weeks): disappeared
% INHIBITION (PM) (powdery mildew; [4]): 88%
PM POST-SPRAY (powdery mildew; [4]): 10
PM PRE-SPRAY (powdery mildew; baseline, CNMA 0.4% plot, stylet oil plot, chemical mix plot): 84
incidence of powdery mildew (not quantitated) (powdery mildew; both treatments, 0.3% and 0.6% in water, Chardonnay): markedly reduced
Mean Number of Aphid Nymphs Per Leaf ([2]; CNMA 1,000 ppm in H2O): 6 ± 3
Mean Number of Aphid Nymphs Per Leaf ([2]; CNMA 3,000 ppm in H2O): 4 ± 3
Mean Number of Aphid Nymphs Per Leaf ([2]; CNMA 10,000 ppm in H2O): 1 ± 1
Mean number of aphid nymphs per leaf ([2]; each concentration (1,000, 3,000, 10,000 ppm), pre-count mean of about 60): less than 10
LEAFHOPPERS/LEAF (leafhoppers): 0.16
effect on mortality ([3]; 0.1 ppm in vehicle): no effect on mortality
effect on mortality ([3]; 1 ppm in vehicle): no effect on mortality
nematodes dead ([3]; 10 ppm in vehicle, 24 hours): 0%
nematodes dead ([3]; 10 ppm in vehicle, 48 hours): 15%
nematodes dead ([3]; 10 ppm in vehicle, 72 hours): 17.5%
nematodes dead ([3]; 10 ppm in vehicle, 96 hours): 22.5%
nematodes dead ([3]; 10 ppm in vehicle, 108 hours): 27.5%
nematodes dead ([3]; 10 ppm in vehicle, 132 hours): 52.5%
nematodes dead ([3]; 10 ppm in vehicle, 156 hours): 52.5%
nematodes dead ([3]; greater than 100 ppm in vehicle (2% Tween 80, 6% NaHCO3), 24 hours): 100%
